# Measured values taken from US10815222B2, “Compounds for use in the treatment of kinetoplastid infection” (C.N.C.C.S. S.c.a.r.l. COLLEZIONE NAZIONALE DEI COMPOSTI …, priority 2016, dated 2020).
# Test system: Bloodstream form of Trypanosoma brucei, strain Lister 427
# Assay: Trypanosoma brucei growth inhibition assay (CellTiter-Glo, 24 h)
# Assay type: cell-based
# Details: Trypanosoma brucei; T. Brucei Growth Inibition Assay, class symbols; read-out: T. Brucei GI EC50
# Procedure, shortened: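 Bloodstream-form T. brucei Lister 427, 1500 parasites per well in supplemented IMDM with 10% FBS, were exposed to compound (DMSO ≤0.25% final) for 24 h at 37 °C. Viability was measured by CellTiter-Glo luminescence.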
row,Structure (SMILES),EC50 [µM]
1,COc1nc2ccccc2cc1-c1cnc(C2CNCCN2C(=O)Cc2ccccc2)[nH]1 (stereo not shown),1.01 to 5
2,COc1nc2ccccc2cc1-c1cnc(C2CN(S(C)(=O)=O)CCN2C(=O)Cc2ccccc2)[nH]1 (stereo not shown),1.01 to 5
3,O=C(Cc1c[nH]c2ncccc12)N1CCCCC1c1ncc(-c2ccc3ccccc3c2)[nH]1 (stereo not shown),1.01 to 5
4,O=C(Cc1c[nH]c2ncccc12)N1CCOCC1c1ncc(-c2ccc3ccccc3c2)[nH]1 (stereo not shown),1.01 to 5
5,COc1nc2ccccc2cc1-c1cnc(C2CN(CC(F)F)CCN2C(=O)Cc2ccccc2)[nH]1 (stereo not shown),1.01 to 5
6,CCn1cc(CN2CCC(c3ncc(-c4cc5ccccc5nc4OC)[nH]3)N(C(=O)Cn3c(C(F)(F)F)nc4ccc(OC)cc43)CC2)cn1 (stereo not shown),0.51 to 1
7,COc1ccc2nc(C(F)(F)F)n(CC(=O)N3CCN(Cc4cn[nH]c4)CCC3c3ncc(-c4cc5ccccc5nc4OC)[nH]3)c2c1 (stereo not shown),0.1 to 0.5
8,COc1ccc2nc(C(F)(F)F)n(CC(=O)N3CCN(Cc4cnn(C)c4C)CCC3c3ncc(-c4cc5ccccc5nc4OC)[nH]3)c2c1 (stereo not shown),0.1 to 0.5
9,COc1nc2ccccc2cc1-c1cnc(C2CN(C(C)=O)CCN2C(=O)Cc2ccccc2)[nH]1 (stereo not shown),1.01 to 5
10,COc1ccc2nc(C(F)(F)F)n(CC(=O)N3CCN(C4CCCC4)CCC3c3ncc(-c4cc5ccccc5nc4OC)[nH]3)c2c1 (stereo not shown),0.1 to 0.5
11,COc1nc2ccccc2cc1-c1cnc(C2CN(C(C)C)CCN2C(=O)Cc2ccccc2)[nH]1 (stereo not shown),1.01 to 5
12,COc1ccc2nc(C(F)(F)F)n(CC(=O)N3CCN(C(C)C)CCC3c3ncc(-c4cc5ccccc5nc4OC)[nH]3)c2c1 (stereo not shown),0.1 to 0.5
13,CN1CCN(C(=O)Cc2ccccc2)C(c2ncc(-c3ccc4ccccc4c3)[nH]2)C1 (stereo not shown),1.01 to 5
14,CN1CCN(C(=O)Cc2ccncc2)C(c2ncc(-c3ccc4ccccc4c3)[nH]2)C1 (stereo not shown),1.01 to 5
15,CN1CCN(C(=O)Cc2cnc3ccccc3c2)C(c2ncc(-c3ccc4ccccc4c3)[nH]2)C1 (stereo not shown),1.01 to 5
16,CN1CCN(C(=O)CCS(=O)(=O)c2ccccc2)C(c2ncc(-c3ccc4ccccc4c3)[nH]2)C1 (stereo not shown),1.01 to 5
17,CN1CCN(C(=O)Cc2ccccc2)C(c2ncc(-c3ccc4ncccc4c3)[nH]2)C1 (stereo not shown),1.01 to 5
18,COc1ccc2nc(C)n(CC(=O)N3CCN(CC4CCOC4)C[C@H]3c3ncc(-c4cc5ccccc5[nH]4)[nH]3)c2c1 (stereo partly shown),1.01 to 5
19,COc1ccc2nc(C)n(CC(=O)N3CCC(O)C[C@H]3c3ncc(-c4cc5ccccc5nc4OC)[nH]3)c2c1 (stereo partly shown),0.51 to 1
20,COc1ccc2nc(C(F)(F)F)n(CC(=O)N3CC[C@@H](N(C)C)C[C@H]3c3ncc(-c4cc5ccccc5nc4OC)[nH]3)c2c1,0.51 to 1
21,CN1CCN(C(=O)Cc2ccccc2F)C(c2ncc(-c3ccc4ccccc4c3)[nH]2)C1 (stereo not shown),1.01 to 5

row,Structure (SMILES),EC50 [µM]
1,CN1CCN(C(=O)Cn2cc3ccccc3n2)C(c2ncc(-c3ccc4ccccc4c3)[nH]2)C1 (stereo not shown),1.01 to 5
2,COc1ccc(CC(=O)N2CCN(C)CC2c2ncc(-c3ccc4ccccc4c3)[nH]2)cc1 (stereo not shown),1.01 to 5
3,COc1ccc2nc(C(F)(F)F)n(CC(=O)N3CCN(CCc4csc(C)n4)CCC3c3ncc(-c4cc5ccccc5nc4OC)[nH]3)c2c1 (stereo not shown),0.1 to 0.5
4,COc1ccc2nc(C(F)(F)F)n(CC(=O)N3C[C@@H](NC4CCOC4)CC[C@H]3c3ncc(-c4cc5ccccc5nc4OC)[nH]3)c2c1 (stereo partly shown),0.51 to 1
5,COc1ccc2nc(C(F)(F)F)n(CC(=O)N3CCN(Cc4noc(C)n4)CCC3c3ncc(-c4cc5ccccc5nc4OC)[nH]3)c2c1 (stereo not shown),0.1 to 0.5
6,COc1ccc2nc(C(F)(F)F)n(CC(=O)N3CCN(Cc4cnn(C)c4)CCC3c3ncc(-c4cc5ccccc5nc4OC)[nH]3)c2c1 (stereo not shown),0.1 to 0.5
7,COc1ccc2nc(C(F)(F)F)n(CC(=O)N3CCN(Cc4cnc(C)s4)CCC3c3ncc(-c4cc5ccccc5nc4OC)[nH]3)c2c1 (stereo not shown),0.1 to 0.5
8,COc1ccc2nc(C(F)(F)F)n(CC(=O)N3CCN(Cc4cn(C)nn4)CCC3c3ncc(-c4cc5ccccc5nc4OC)[nH]3)c2c1 (stereo not shown),0.1 to 0.5
9,COc1ccc2nc(C(F)(F)F)n(CC(=O)N3CC[C@@H](NCc4nccs4)C[C@H]3c3ncc(-c4cc5ccccc5nc4OC)[nH]3)c2c1,0.1 to 0.5
10,COc1ccc2nc(C(F)(F)F)n(CC(=O)N3CC[C@@H](NC4CCOC4)C[C@H]3c3ncc(-c4cc5ccccc5nc4OC)[nH]3)c2c1 (stereo partly shown),0.1 to 0.5
11,COc1ccc2nc(C)n(CC(=O)N3CC[C@H](N(C)Cc4cnccn4)C[C@H]3c3ncc(-c4cc5ccccc5nc4OC)[nH]3)c2c1,0.1 to 0.5
12,COc1ccc2nc(C)n(CC(=O)N3CC[C@H](NCc4ccn(C)n4)C[C@H]3c3ncc(-c4cc5ccccc5nc4OC)[nH]3)c2c1,1.01 to 5
13,COc1ccc2nc(C)n(CC(=O)N3CCN(CC4CCOC4)C[C@H]3c3ncc(-c4ccc5ccccc5n4)[nH]3)c2c1 (stereo partly shown),1.01 to 5
14,COc1ccc2nc(C)n(CC(=O)N3CCN(CC4CCOC4)C[C@H]3c3ncc(-c4cnc5ccccc5c4)[nH]3)c2c1 (stereo partly shown),0.51 to 1
15,COc1ccc2nc(C)n(CC(=O)N3CCN(C4CCOC4)C[C@H]3c3ncc(-c4cc5ccccc5nc4OC)[nH]3)c2c1 (stereo partly shown),0.1 to 0.5
16,COc1ccc2nc(C)n(CC(=O)N3CCN(CC4CCOC4)C[C@H]3c3ncc(-c4ccc(-c5ccccc5)nc4OC)[nH]3)c2c1 (stereo partly shown),0.51 to 1
17,COc1ccc2nc(C)n(CC(=O)N3CCN(CC4CCOC4)C[C@H]3c3ncc(-c4ccc5ncccc5c4)[nH]3)c2c1 (stereo partly shown),1.01 to 5
18,COc1ccc2nc(C)n(CC(=O)N3CC[C@H](NCC4CCOC4)C[C@H]3c3ncc(-c4cc5ccccc5nc4OC)[nH]3)c2c1 (stereo partly shown),1.01 to 5
19,CN1CCN(C(=O)Cc2noc3ccccc23)C(c2ncc(-c3ccc4ccccc4c3)[nH]2)C1 (stereo not shown),1.01 to 5
20,COc1ccc2[nH]c(C)c(CC(=O)N3CCN(CCCC(=O)O)CC3c3ncc(-c4ccc5ccccc5c4)[nH]3)c2c1 (stereo not shown),1.01 to 5
21,COc1ccccc1C(=O)N1CCN(C)CC1c1ncc(-c2ccc3ccccc3c2)[nH]1 (stereo not shown),1.01 to 5

row,Structure (SMILES),EC50 [µM]
1,CN1CCN(C(=O)C2(c3ccccc3)CC2)C(c2ncc(-c3ccc4ccccc4c3)[nH]2)C1 (stereo not shown),1.01 to 5
2,COc1nc2ccccc2cc1-c1cnc([C@@H]2CCN(Cc3ccn(C)n3)CCN2C(=O)[C@](OC)(c2ccccc2)C(F)(F)F)[nH]1,1.01 to 5
3,CCC(=O)CCCN1CCN(C(=O)Cc2c[nH]c3ccccc23)[C@@H](c2ncc(-c3ccc4ccccc4c3)[nH]2)C1,1.01 to 5
4,COc1ccc2nc(C)n(CC(=O)N3CCN(CCn4cccn4)C[C@H]3c3ncc(-c4cc5ccccc5nc4OC)[nH]3)c2c1,0.1 to 0.5
5,COc1ccc2nc(C(F)(F)F)n(CC(=O)N3CCN(C4CCN(C)CC4)C[C@H]3c3ncc(-c4cc5ccccc5nc4OC)[nH]3)c2c1,0.1 to 0.5
6,COc1ccc2nc(C)n(CC(=O)N3CCN(Cc4cn(C)nn4)C[C@H]3c3ncc(-c4cc5ccccc5nc4OC)[nH]3)c2c1,0.51 to 1
7,COc1ccc2nc(C)n(CC(=O)N3CCN(C4CCOCC4)C[C@H]3c3ncc(-c4cc5ccccc5nc4OC)[nH]3)c2c1,0.1 to 0.5
8,COc1nc2ccccc2cc1-c1cnc([C@@H]2CCN(Cc3ccn(C)n3)CCN2C(=O)[C@@](OC)(c2ccccc2)C(F)(F)F)[nH]1,1.01 to 5
9,CCC(=O)CCCN1CCN(C(=O)Cc2c[nH]c3ccccc23)[C@H](c2ncc(-c3ccc4ccccc4c3)[nH]2)C1,0.1 to 0.5
10,COC(=O)CCCN1CCN(C(=O)Cc2c(C)[nH]c3ccc(OC)cc23)C(c2ncc(-c3ccc4ccccc4c3)[nH]2)C1 (stereo not shown),0.1 to 0.5
11,COc1ccc2nc(C)n(CC(=O)N3CCN(CC4CCOC4)C[C@H]3c3ncc(-c4cc5ccccc5n4C(=O)OC(C)(C)C)[nH]3)c2c1 (stereo partly shown),1.01 to 5
12,"COc1nc2ccccc2cc1-c1cnc([C@@H]2CN(C[C@@H]3CCOC3)CCN2C(=O)Cn2c(C(F)(F)F)nc3ccccc32)[nH]1 (single isomer, unassigned)",< 0.1
13,"COc1nc2ccccc2cc1-c1cnc([C@@H]2CN(C[C@H]3CCOC3)CCN2C(=O)Cn2c(C(F)(F)F)nc3ccccc32)[nH]1 (single isomer, unassigned)",< 0.1
14,COc1nc2ccccc2cc1-c1cnc(C2CN(C)CCN2C(=O)Cc2ccccc2)[nH]1 (stereo not shown) [1-(2-(5-(2-methoxyquinolin-3-yl)-1H-imidazol-2-yl)-4-methylpiperazin-1-yl)-2-phenylethan-1-one],1.01 to 5
15,"COc1ccc2nc(C(F)(F)F)n(CC(=O)N3CCN(C4CCS(=O)(=O)CC4)CCC3c3ncc(-c4cc5ccccc5nc4OC)[nH]3)c2c1 (stereo not shown) [1-(4-(1,1-dioxidotetrahydro-2H-thiopyran-4-yl)-7-(5-(2-methoxyquinolin-3-yl)-1H-imidazol-2-yl)-1,4-diazepan-1-yl)-2-(6-methoxy-2-(trifluoromethyl)-1H-benzo[d]imidazol-1-yl)ethan-1-one]",< 0.1
16,"COc1ccc2nc(C(F)(F)F)n(CC(=O)N3CCN(CCn4cccn4)CCC3c3ncc(-c4cc5ccccc5nc4OC)[nH]3)c2c1 (stereo not shown) [1-(4-(2-(1H-pyrazol-1-yl)ethyl)-7-(5-(2-methoxyquinolin-3-yl)-1H-imidazol-2-yl)-1,4-diazepan-1-yl)-2-(6-methoxy-2-(trifluoromethyl)-1H-benzo[d]imidazol-1-yl)ethan-1-one]",< 0.1
17,"COc1ccc2nc(C(F)(F)F)n(CC(=O)N3CCN(Cc4ccon4)CCC3c3ncc(-c4cc5ccccc5nc4OC)[nH]3)c2c1 (stereo not shown) [1-(4-(isoxazol-3-ylmethyl)-7-(5-(2-methoxyquinolin-3-yl)-1H-imidazol-2-yl)-1,4-diazepan-1-yl)-2-(6-methoxy-2-(trifluoromethyl)-1H-benzo[d]imidazol-1-yl)ethan-1-one]",< 0.1
18,"COc1ccc2nc(C(F)(F)F)n(CC(=O)N3CCN(C4CCC4)CCC3c3ncc(-c4cc5ccccc5nc4OC)[nH]3)c2c1 (stereo not shown) [1-(4-cyclobutyl-7-(5-(2-methoxyquinolin-3-yl)-1H-imidazol-2-yl)-1,4-diazepan-1-yl)-2-(6-methoxy-2-(trifluoromethyl)-1H-benzo[d]imidazol-1-yl)ethan-1-one]",< 0.1
19,"COc1nc2ccccc2cc1-c1cnc(C2CCN(Cc3ccn(C)n3)CCN2C(=O)Cn2c(C(F)(F)F)nc3ccccc32)[nH]1 (stereo not shown) [1-(7-(5-(2-methoxyquinolin-3-yl)-1H-imidazol-2-yl)-4-((1-methyl-1H-pyrazol-3-yl)methyl)-1,4-diazepan-1-yl)-2-(2-(trifluoromethyl)-1H-benzo[d]imidazol-1-yl)ethan-1-one]",< 0.1
